The test system of assay [1] is FGFR on AsPC-1 pancreatic cancer epithelial cells. Nature of the assay: Cell surface binding of biotin-FGF-P, imaging flow cytometry (Amnis Imagestream). How it is done: (§1) Three preliminary experiments were carried out using FGF-P in vitro to confirm its activity. First, the biotin conjugated FGF-P was used as a tool to examine for cell surface binding. AsPC-1 pancreatic cancer epithelial cells are known to have high levels of FGFR and were used for this study. ASPC1 cells were incubated with 1 μg/ml of biotin-FGF-P and then labeled with streptavidin-FITC. The cells were then analyzed using an imaging flow cytometer (Amnis Imagestream). This device can image each cell as it passes through the laser, it can then sort cells according to both staining and morphological characteristics.
These clusters can be counted thus allowing for measurement of relative binding coefficients. To test the feasibility of binding coefficient measurement, competition experiments were performed. Free FGF-P (30 ug/ml) was added to cells for 20 min and then the biotin-FGF-P (1 μg/mL) was added. One hour later, the streptavidin-FITC was added and analyzed by flow cytometry. […] In a third test, a bioassay was performed. […]
Three preliminary experiments were carried out using FGF-P in vitro to confirm its activity. […] The cells were then analyzed using an imaging flow cytometer (Amnis Imagestream). […] These clusters were counted, allowing for measurement of relative binding coefficients. […] One hour later, streptavidin-FITC was added and analyzed by flow cytometry. […]
For orientation: Flow cytometry measures light scatter and fluorescence of single cells or particles in a stream.

In assay [2] the test system is mice exposed to sub-TBI (GI syndrome). Nature of the assay: Survival after sub-TBI (GI syndrome / AGS model). Format: in vivo, mouse (Balb/c, C57BL/6, C3H/HeN). From the text: A sub-TBI (total body irradiation) model was created, in which one leg of mouse is shielded from the direct radiation field. With this system, 8.5 Gy can be delivered to Balb/c mice without BM deaths (defined as deaths that occur between 10 and 30 days). When sub-TBI dose was increased to 9 Gy, half the irradiated mice die, and at 10.5 Gy, 66-100% mice died within 5-7 days. Pathologically these mice have devastating gut damage. In our GI (sub-TBI) model, the LD50/7 for Balb/c mice (6-8 week old from NCI) was 8.9-9.1 Gy. Using this GI model, the mitigation effect of FGF-P on the GI syndrome was tested. FGF-P (2 mg/kg) was given im 5-10 minutes after IR and continued once a day for 3-5 consecutive days. Each animal experiment had its own vehicle mock treatment group as control.
When the sub-TBI dose is raised to 10.5 or 11 Gy, 100% of the untreated control mice died of GI syndrome, while 33-67% of mice treated with FGF-P survived 3.5 months, FIGS. 2B and 2C). When the IR dose was raised to 12 Gy, all control animals died and 17% of FGF-P treated mice survived (FIG. 2D). […] Additionally, many of the animals that do die, do so later than mice not treated with FGF-P.
Native FGF-2 has a mouse strain dependent response profile. Most strains enjoy a benefit, but responses in C57 mice have been unimpressive. To determine if the agent works in mice with different genomic backgrounds, FGF-P (2 mg/kg) was given to C57BL/6 mice 10 min after the mice were exposed to 16 Gy sub-TBI. […] A third strain of mouse, C3H/HeN (LD50/7 about 12 Gy), was also studied. At 12.5 Gy sub-TBI, 33% of control mice survived while 50% of mice treated with FGF-P survived. At 13.5 Gy, all the control mice died within 7 days, while 50% of FGF-P treated mice survived (FIG. 3B). Thus unlike native FGF the bioavailability or bioeffect of FGF-P seems to be strain independent.

For assay [3], the system named is endothelial cells (adult bovine aorta endothelium). Nature of the assay: Growth bioassay, endothelial cells. Format: cell-based. To be noted: FGF-P added to culture media. The method, then: (§2) These clusters can be counted thus allowing for measurement of relative binding coefficients. To test the feasibility of binding coefficient measurement, competition experiments were performed. Free FGF-P (30 ug/ml) was added to cells for 20 min and then the biotin-FGF-P (1 μg/mL) was added. One hour later, the streptavidin-FITC was added and analyzed by flow cytometry. […] In a third test, a bioassay was performed. FGF-P was added to culture media of two types of cells: endothelial cells (adult bovine aorta endothelium) and epithelial cells (SW480, a cell line from colon).
as §1, with “examine” for “examine for”, “ASPC-1” for “ASPC1”, “laser, and” for “laser,”, “characteristics. […] These clusters were counted, allowing for measurement of relative binding coefficients. […] One hour later, streptavidin-FITC was added and analyzed by flow cytometry. […]” for “characteristics.”

The test system of assay [4] is epithelial cells (SW480, a cell line from colon). In words: Growth bioassay, epithelial cells. Format: cell-based. To be noted: FGF-P added to culture media. How it is done:
as §2
as §1, with “examine” for “examine for”, “ASPC-1” for “ASPC1”, “laser, and” for “laser,”, “characteristics. […] These clusters were counted, allowing for measurement of relative binding coefficients. […] One hour later, streptavidin-FITC was added and analyzed by flow cytometry. […]” for “characteristics.”

Assay [5] can be described thus: Plasma endotoxin (LPS) after TBI. As to conditions: IR mice. Format: in vivo, mouse. From the text:
This relates with the FGF-P promotion of WBC regeneration. The low endotoxin indicates a low probability of endothelium damage and less consumption of platelet, which promotes the recovery of homeostasis of TBI mice.

Assay [6] relates to BM cells (megakaryocyte colony). In words: Megakaryocyte colony formation of BM cells (MegaCult-C). As to conditions: cytokine cocktail reduced to 50%; FGF-P 100 ng/ml. Format: cell-based, mouse (Balb/c). An excerpt: Survival of ARS depends on rapid reconstitution of hematopoiesis after IR-induced myelosuppression. […] However, the timing and mechanism of effect on BM stem cells is unknown. Also unclear are the number of FGFRs on hematopoietic stem cells (HSCs) and their role in reconstitution after IR. […] To characterize the effects of FGF-P on BM, the study approach was to obtain fresh BM (including both HSCs and MSCs) from Balb/c mice, and culture it under varying conditions (3 D culture or 2 D round-bottom well) in triplicate for 1-3 weeks. The BM cells were stimulated with FGF-P at different doses (as test) or with EPO, TPO, GM-CSF or native FGF2 (as a positive control). The cultures were examined using several methods including colony count, photography, CyQUANT® assay and ^3H-TdR incorporation.

In assay [7] the test system is platelet. In words: Platelet aggregation after 4 Gy TBI. Format: in vivo, mouse. As to conditions: day 29 after 4 Gy TBI; FGF-P right post-IR daily for 6 day; P<0.05. From the text: One of the major functions of platelet is to aggregate on the wounded site as first step to block the bleeding vessel. […] This recovery is statistically different (FIG. 18D P<0.05).

Assay [8] concerns irradiated human cells. In words: Responsiveness of irradiated human cells. Format: cell-based.

Peptide text beside a SMILES is read from it.

As to `CC(C)C[C@H](NC(=O)[C@H](C)NC(=O)[C@@H](NC(=O)[C@H](Cc1ccc(O)cc1)NC(=O)[C@H](Cc1c[nH]c2ccccc12)NC(=O)[C@H](CO)NC(=O)[C@H](CO)NC(=O)[C@H](Cc1ccc(O)cc1)NC(=O)[C@H](CCCCN)NC(=O)[C@H](CCCNC(=N)N)NC(=O)[C@H](CO)NC(=O)[C@H](CCCNC(=N)N)NC(=O)[C@H](Cc1ccc(O)cc1)NC(=O)[C@@H](N)CS)C(C)C)C(=O)N[C@@H](CCCCN)C(=O)N[C@@H](CCCNC(=N)N)C(=O)N[C@@H](CS)C(=O)O` [FGF-P, CYRSRKYSSWYVALKRC] (H-CYRSRKYSSWYVALKRC-OH; N-terminus and C-terminus assumed), the cell surface binding entry in assay [1] (AsPC-1 cells, 1 μg/ml biotin-FGF-P, streptavidin-FITC) is “bound to the cell surface and causes the aggregation of FGFR”. Besides, in assay [1] (free FGF-P 30 ug/ml for 20 min, then biotin-FGF-P 1 μg/mL), the “competition with biotin-FGF-P for cell surface binding” value is listed as “competed with biotin-FGF-P for cell surface binding”. The mice still alive in assay [2] (Balb/c, 10 Gy sub-TBI, at 4 months, FGF-P 2 mg/kg im 5-10 min after IR, daily 3-5 days) stood at 87%; in assay [2] (C57BL/6, 16 Gy sub-TBI, at 1.5 months, FGF-P 2 mg/kg 10 min after IR), 33%. The mice survived in assay [2] (Balb/c, 10.5 or 11 Gy sub-TBI, 3.5 months, FGF-P 2 mg/kg im) was 33-67%; in assay [2] (Balb/c, 12 Gy sub-TBI, FGF-P 2 mg/kg im), 17%; in assay [2] (C3H/HeN, 12.5 Gy sub-TBI) it was 50%; in assay [2] (C3H/HeN, 13.5 Gy sub-TBI), 50%. This compound also returned a long-term survival in assay [2] (C57BL/6, 16 Gy sub-TBI, over 2.5 months) of 33%. In assay [3], the growth of endothelium result is “stimulated the growth of both endothelium and epithelium”. Further, the growth of epithelium entry in assay [4] is “stimulated the growth of both endothelium and epithelium”. Further, in assay [5], the “plasma level of endotoxin (LPS)” value is “reduced the LPS level”. The megakaryocyte colony formation entry in assay [6] is recorded as “greatly stimulated the formation of megakaryocyte colony to the level as native FGF2”. Moreover, the platelet aggregation entry in assay [7] was “recovered towards normal”. The “responsiveness of irradiated human cells” value in assay [8] is “maintain their responsiveness to FGF-P”.
